Patent US20100016328A1, “PTERIN ANALOGS” (BioMarin Pharmaceutical, Inc., priority 2007, published 2010)
Structures can show the parent of a compound that is named as a salt. Where two headings read alike, the source gives them in different places.

Tests used:
[1] = Pharmacokinetics of BH4 and BH4 analogs given by oral gavage to monkeys; type: in vivo; conditions: fasted cynomolgus monkeys; for AUC0-t / Cmax: equivalent of 80 mg of BH4, n=3, plasma over 25 hours, standard deviation in parenthesis; for Tmax: equivalent of 80 mg of BH4, n=3, standard deviation in parenthesis
Procedure: Fasted cynomolgus monkeys were given BH4 and BH4 analogs by oral gavage (n=3), such that the amount of the analog administered was the equivalent of 80 mg of BH4. The plasma concentrations of the BH4, when administered directly, or the analogs was measured at various time points over a 25 hour period. The PK data is also shown in the following table, wherein the number in parenthesis is the standard deviation.

[2] = Stability in human plasma; type: in vitro ADME; conditions: concentration of compound remaining over a 60 minute period; FIG. 3
Procedure: (§1) The stability of various compounds as disclosed herein were tested in human and rat and in simulated gastric fluid. Each compound was tested over an hour period for concentration of the compound remaining at each time point. The results are shown in FIGS. 3 (human plasma stability), 4 (rat plasma stability), and 5 (simulated gastric fluid stability) for the compounds of Example 2, 3, 4, and 20.

Stability in rat plasma = type: in vitro ADME; conditions: concentration of compound remaining over a 60 minute period; FIG. 4
Procedure: as §1

[3] = Stability in simulated gastric fluid; type: in vitro ADME; conditions: concentration of compound remaining over a 60 minute period; FIG. 5
Procedure: as §1

[4] = tested on: human umbilical vein endothelial cells (HUVEC); experiment: Nitric oxide production (nitrite+nitrate, Griess reaction) in NAS-pretreated HUVEC; type: cell-based; conditions: HUVEC pretreated with 3 mM NAS; for NO production (nitrite+nitrate): 50, 100, or 200 mM compound, 5-22 hours
Procedure: Cultured human umbilical vein endothelial cells (HUVEC) were pretreated with 3 mM N-acetylserotonin (NAS), an inhibitor of the enzyme sepiapterin reductase. Inhibition of this pathway typically results in loss of endogenous BH4, depressing the endogenous eNOS activity far below normal and provides an assay to test for restoration of eNOS activity.
Thus, subconfluent HUVECs were seeded in a 24-well plate and grown overnight in EGM2 medium (full growth medium). The next morning, fresh medium was added to the cells (300 μL/well), 3 mM NAS was added to the cells to decrease the endogenous BH4 levels. After an incubation of 1.5 hours, 50, 100, or 200 mM BH4 or compound of Example 5, Example 6, Example 7, or Example 9 were added to the cells. The cells were allowed to react with the BH4 or the compound of Example 5, Example 7, or Example 9 for 5-22 hours. The production of NO was then measured as changes in total (nitrite+nitrate) by the Griess reaction subsequent to nitrate reductase treatment. The percentage of nitrite+nitrate with BH4 or compound of Example 5, Example 7, or Example 9 is shown in FIG. 7 (after 5 hours); FIG. 8 (after 17 hours); and FIG. 9 (after 22 hours). The results for Example 6 are shown in FIG. 10 (after 5 hours) and FIG. 11 (after 20 hours).

[5] = design: species or system male Sprague Dawley rats; conditions: male, Sprague Dawley, rat, in vivo, po
Procedure: This example allows for comparison of the pharmacokinetics of the analog (Compound I) versus that of BH4 following single oral administration in rats.
With respect to the administered BH4, the maximum total biopterin concentrations in plasma 2 hrs and 1 hr post-dosing were 108 ng/ml (i.e., about 3 fold the endogenous level) and 1227 ng/ml (i.e., about 30 fold the endogenous level), respectively. […] The ratio of reduced biopterin to total biopterins in plasma (i.e., the reduced-form ratio) was relatively static (73%-96%).

[6] = cynomolgus monkey, plasma, read-out: Tmax

Row | SMILES | AUC0-t [1] | Cmax [1] | Tmax [1] | also measured
1 | C[C@H](O)[C@H](O)[C@H]1CNc2nc(N)[nH]c(=O)c2N1C(=O)OCc1ccccc1 (stereo in doubt) [Example 20, 2-Amino-6-(1,2-dihydroxy-propyl)-4-oxo-4,6,7,8-tetrahydro-1H-pteridine-5-carboxylic acid benzyl ester] | – | – | – | stability in human plasma [2]: high level of stability; stability in rat plasma (Stability in rat plasma): high level of stability; stability in simulated gastric fluid [3]: high level of stability
2 | CCC(C)[C@H](N)C(=O)O[C@@H](C)[C@H](O)[C@H]1CNc2nc(N)[nH]c(=O)c2N1 (stereo in doubt) [Example 6, 2-Amino-3-methyl-pentanoic acid 2-(2-amino-4-oxo-3,4,5,6,7,8-hexahydro-pteridin-6-yl)-2-hydroxy-1-methyl-ethyl ester] | – | – | – | effect on NAS-treated cells compared with Example 5 [4]: similar, if slightly reduced, effect; NO production (nitrite+nitrate) [4]: increased NO production in a dose-dependent manner
3 | CC(=O)O[C@@H]([C@H](C)OC(C)=O)[C@H]1CNc2nc(N)[nH]c(=O)c2N1C(C)=O [Example 2, Acetic acid 2-acetoxy-1-(5-acetyl-2-amino-4-oxo-3,4,5,6,7,8-hexahydro-pteridin-6-yl)-propyl ester] | – | – | – | stability in human plasma [2]: high level of stability; stability in rat plasma (Stability in rat plasma): high level of stability; stability in simulated gastric fluid [3]: high level of stability
4 | C[C@H](O)[C@H](O)[C@H]1CNc2nc(N)[nH]c(=O)c2N1C(=O)[C@@H]1CCCN1 (stereo in doubt) [Example 16, 2-Amino-6-(1,2-dihydroxy-propyl)-5-(pyrrolidine-2-carbonyl)-5,6,7,8-tetrahydro-1H-pteridin-4-one dihydrochloride] | 88.1 (31.5) ng hr/mL | 7.63 (2.7) ng/mL | 6.0 (0)^ hr | –
5 | CC[C@H](C)[C@H](N)C(=O)N1c2c(nc(N)[nH]c2=O)NC[C@@H]1[C@@H](O)[C@H](C)O (stereo in doubt) [Example 14, 2-Amino-5-(2-amino-3-methyl-pentanoyl)-6-(1,2-dihydroxy-propyl)-5,6,7,8-tetrahydro-1H-pteridin-4-one hydrochloride] | 63.2 (25.6) ng hr/mL | 5.23 (2.1) ng/mL | 12.1 (11.9) hr | –
6 | CCCC(=O)O[C@@H]([C@H](C)OC(=O)CCC)[C@H]1CNc2nc(N)[nH]c(=O)c2N1C(=O)CCC [Example 4, Butyric acid 1-(2-amino-5-butyryl-4-oxo-3,4,5,6,7,8-hexahydro-pteridin-6-yl)-2-butyryloxy-propyl ester] | – | – | – | stability in human plasma [2]: high level of stability; stability in rat plasma (Stability in rat plasma): high level of stability; stability in simulated gastric fluid [3]: high level of stability
7 | CCC(=O)O[C@@H]([C@H](C)OC(=O)CC)[C@H]1CNc2nc(N)[nH]c(=O)c2N1C(=O)CC [Example 3, Propionic acid 1-(2-amino-4-oxo-5-propionyl-3,4,5,6,7,8-hexahydro-pteridin-6-yl)-2-propionyloxy-propyl ester] | – | – | – | stability in human plasma [2]: high level of stability; stability in rat plasma (Stability in rat plasma): high level of stability; stability in simulated gastric fluid [3]: high level of stability
8 | CC(C)[C@H](N)C(=O)N1c2c(nc(N)[nH]c2=O)NC[C@@H]1[C@@H](O)[C@H](C)O (stereo in doubt) [Example 13, 2-Amino-5-(2-amino-3-methyl-butyryl)-6-(1,2-dihydroxy-propyl)-5,6,7,8-tetrahydro-1H-pteridin-4-one hydrochloride] | 13.7 ng·h/mL | 2.2 ng/mL | 6.0 h | –

Second part, led by results:

Row | AUC0-t [1] | Cmax [1] | Tmax [1] | SMILES | also measured
9 | 36.8 (37.6) ng hr/mL | 5.7 (1.7) ng/mL | 12.0 (10.4) hr | C[C@H](O)[C@H](O)[C@H]1CNc2nc(N)[nH]c(=O)c2N1C(=O)[C@@H](N)CCCCN (stereo in doubt) [Example 15, 2-Amino-5-(2,6-diamino-hexanoyl)-6-(1,2-dihydroxy-propyl)-5,6,7,8-tetrahydro-1H-pteridin-4-one dihydrochloride] | –
10 | 572 (148) ng hr/mL | 82.3 (27.2) ng/mL | – | C[C@H](OC(=O)[C@@H](N)CCCCN)[C@H](O)[C@H]1CNc2nc(N)[nH]c(=O)c2N1 [Example 7, 2,6-Diamino-hexanoic acid 2-(2-amino-4-oxo-3,4,5,6,7,8-hexahydro-pteridin-6-yl)-2-hydroxy-1-methyl-ethyl ester tri-hydrochloride] | Tmax [1, 6]: 2.67 h; effect on NAS-treated cells compared with Example 5 [4]: similar, if slightly reduced, effect; NO production (nitrite+nitrate) [4]: increased NO production in a dose-dependent manner
11 | 625 (294) ng hr/mL | 138 (123) ng/mL | – | CC(C)[C@H](N)C(=O)O[C@@H]([C@H](C)OC(=O)[C@@H](N)C(C)C)[C@H]1CNc2nc(N)[nH]c(=O)c2N1 [Example 10, 2-Amino-3-methyl-butyric acid 2-(2-amino-3-methyl-butyryloxy)-1-(2-amino-4-oxo-3,4,5,6,7,8-hexahydro-pteridin-6-yl)-propyl ester trihydrochloride] | Tmax [1, 6]: 1.83 h
12 | 617 (336) ng hr/mL | 115 (65.4) ng/mL | 1.5 (0.09) hr | C[C@H](OC(=O)[C@@H](N)CCCCN)[C@H](OC(=O)[C@@H](N)CCCCN)[C@H]1CNc2nc(N)[nH]c(=O)c2N1 [Example 11, 2,6-Diamino-hexanoic acid 2-(2-amino-4-oxo-3,4,5,6,7,8-hexahydro-pteridin-6-yl)-2-(2,6-diamino-hexanoyloxy)-1-methyl-ethyl ester pentahydrochloride] | –
13 | 438 (211) ng hr/mL | 73.6 (42.9) ng/mL | 3.0 (1.0) hr | C[C@H](OC(=O)[C@@H]1CCCN1)[C@H](OC(=O)[C@@H]1CCCN1)[C@H]1CNc2nc(N)[nH]c(=O)c2N1 [Example 12, Pyrrolidine-2-carboxylic acid 1-(2-amino-4-oxo-3,4,5,6,7,8-hexahydro-pteridin-6-yl)-2-(pyrrolidine-2-carbonyloxy)-propyl ester trihydrochloride] | –
14 | 384 (214) ng hr/mL | 61.9 (34.8) ng/mL | 2.0 (0)^ hr | C[C@H](OC(=O)[C@@H]1CCCN1)[C@H](O)[C@H]1CNc2nc(N)[nH]c(=O)c2N1 [Example 9, Pyrrolidine-2-carboxylic acid 2-(2-amino-4-oxo-3,4,5,6,7,8-hexahydro-pteridin-6-yl)-2-hydroxy-1-methyl-ethyl ester dihydrochloride] | effect on NAS-treated cells compared with Example 5 [4]: similar, if slightly reduced, effect; NO production (nitrite+nitrate) [4]: increased NO production in a dose-dependent manner
15 | 288 (15.5) ng hr/mL | 42.0 (12.6) ng/mL | 3.0 (0)^ hr | C[C@H](O)[C@H](O)[C@H]1CNc2nc(N)[nH]c(=O)c2N1 [BH4, Tetrahydrobiopterin] | ratio of reduced biopterin to total biopterins in plasma (reduced-form ratio) [5]: 73-96%; maximum total biopterin concentration relative to the endogenous level ([5]; 10 mg/kg): about 3 fold; time of maximum total biopterin concentration post-dosing ([5]; 10 mg/kg): 2 h; time of return to the endogenous level post-dosing ([5]; 10 mg/kg): 9 h; maximum total biopterin concentration relative to the endogenous level ([5]; 100 mg/kg): about 30 fold; time of maximum total biopterin concentration post-dosing ([5]; 100 mg/kg): 1 h; time of return to the endogenous level post-dosing ([5]; 100 mg/kg): 24 h
